Reference: the NIST ThermoML archive (doi:10.1016/j.jct.2004.09.005)
“And” between values parts separate entries of the source, which are not always exact repeats. Identical values can stand only once. ± gives the expanded uncertainty stated by the source.

Tests used:
[1] = Crystal; for vapor or sublimation pressure: Calculated from knudsen effusion weight loss; for Normal melting temperature: DTA
[2] = Molar enthalpy of transition or fusion; conditions: Crystal; DSC

O=C(O)c1cccc(Cl)c1 [3-chlorobenzoic acid]
vapor or sublimation pressure ([1]; 320.13 K): 0.000109 ± 5e-06 kPa and 0.000106 ± 5e-06 kPa and 0.000104 ± 5e-06 kPa
vapor or sublimation pressure ([1]; 321.18 K): 0.000122 ± 6e-06 kPa and 0.00012 ± 6e-06 kPa and 0.000117 ± 6e-06 kPa
vapor or sublimation pressure ([1]; 324.17 K): 0.000173 ± 9e-06 kPa and 0.000171 ± 9e-06 kPa and 0.00017 ± 9e-06 kPa
vapor or sublimation pressure ([1]; 327.14 K): 0.000241 ± 1.2e-05 kPa and 0.000236 ± 1.2e-05 kPa and 0.000245 ± 1.2e-05 kPa
vapor or sublimation pressure ([1]; 330.15 K): 0.000335 ± 1.7e-05 kPa and 0.000327 ± 1.6e-05 kPa and 0.000324 ± 1.6e-05 kPa
vapor or sublimation pressure ([1]; 333.17 K): 0.000474 ± 2.4e-05 kPa and 0.000472 ± 2.4e-05 kPa and 0.00047 ± 2.4e-05 kPa
vapor or sublimation pressure ([1]; 336.13 K): 0.000655 ± 3.3e-05 kPa and 0.000644 ± 3.2e-05 kPa
vapor or sublimation pressure ([1]; 339.01 K): 0.000896 ± 4.5e-05 kPa and 0.000873 ± 4.4e-05 kPa and 0.000877 ± 4.4e-05 kPa
vapor or sublimation pressure ([1]; 340.13 K): 0.001012 ± 0.0001 kPa and 0.000984 ± 4.9e-05 kPa and 0.00099 ± 5e-05 kPa
Normal melting temperature [1]: 154.72 ± 0.55 °C
Molar enthalpy of transition or fusion [2]: 5.66 ± 0.134 kcal/mol

O=C(O)c1cccc(Br)c1 [3-bromobenzoic acid]
vapor or sublimation pressure ([1]; 327.67 K): 0.000111 ± 6e-06 kPa and 0.000113 ± 6e-06 kPa
vapor or sublimation pressure ([1]; 330.66 K): 0.00016 ± 8e-06 kPa and 0.000152 ± 8e-06 kPa
vapor or sublimation pressure ([1]; 332.64 K): 0.0002 ± 1e-05 kPa and 0.000196 ± 1e-05 kPa
vapor or sublimation pressure ([1]; 335.16 K): 0.00025 ± 1.3e-05 kPa and 0.000253 ± 1.3e-05 kPa and 0.000261 ± 1.3e-05 kPa
vapor or sublimation pressure ([1]; 337.71 K): 0.000354 ± 1.8e-05 kPa and 0.000351 ± 1.8e-05 kPa and 0.00035 ± 1.8e-05 kPa
vapor or sublimation pressure ([1]; 340.14 K): 0.000464 ± 2.3e-05 kPa and 0.000451 ± 2.3e-05 kPa and 0.00045 ± 2.3e-05 kPa
vapor or sublimation pressure ([1]; 342.65 K): 0.000596 ± 3e-05 kPa and 0.00059 ± 3e-05 kPa and 0.000584 ± 2.9e-05 kPa
vapor or sublimation pressure ([1]; 345.15 K): 0.000783 ± 3.9e-05 kPa and 0.00077 ± 3.9e-05 kPa and 0.000767 ± 3.8e-05 kPa
vapor or sublimation pressure ([1]; 347.6 K): 0.000995 ± 5e-05 kPa and 0.001004 ± 0.0001 kPa and 0.000982 ± 4.9e-05 kPa
Normal melting temperature [1]: 156.93 ± 0.45 °C
Molar enthalpy of transition or fusion [2]: 5.95 ± 0.134 kcal/mol

O=C(O)c1ccccc1Br [2-bromobenzoic acid]
vapor or sublimation pressure ([1]; 327.56 K): 9.4e-05 ± 5e-06 kPa and 9.1e-05 ± 5e-06 kPa
vapor or sublimation pressure ([1]; 330.16 K): 0.000127 ± 6e-06 kPa and 0.000126 ± 6e-06 kPa and 0.000125 ± 6e-06 kPa
vapor or sublimation pressure ([1]; 332.67 K): 0.000169 ± 8e-06 kPa and 0.000174 ± 9e-06 kPa and 0.000167 ± 8e-06 kPa
vapor or sublimation pressure ([1]; 335.15 K): 0.000227 ± 1.1e-05 kPa and 0.000223 ± 1.1e-05 kPa and 0.000224 ± 1.1e-05 kPa
vapor or sublimation pressure ([1]; 337.69 K): 0.000297 ± 1.5e-05 kPa and 0.000299 ± 1.5e-05 kPa and 0.000296 ± 1.5e-05 kPa
vapor or sublimation pressure ([1]; 340.16 K): 0.000402 ± 2e-05 kPa and 0.000394 ± 2e-05 kPa and 0.000392 ± 2e-05 kPa
vapor or sublimation pressure ([1]; 342.63 K): 0.000533 ± 2.7e-05 kPa and 0.000524 ± 2.6e-05 kPa
vapor or sublimation pressure ([1]; 345.16 K): 0.000665 ± 3.3e-05 kPa and 0.000698 ± 3.5e-05 kPa and 0.000678 ± 3.4e-05 kPa
vapor or sublimation pressure ([1]; 347.68 K): 0.000908 ± 4.5e-05 kPa and 0.000897 ± 4.5e-05 kPa and 0.000878 ± 4.4e-05 kPa
Normal melting temperature [1]: 148.5 ± 0.56 °C
Molar enthalpy of transition or fusion [2]: 5.93 ± 0.203 kcal/mol

O=C(O)c1ccccc1Cl [2-chlorobenzoic acid]
vapor or sublimation pressure ([1]; 320.16 K): 0.000103 ± 5e-06 kPa and 0.000102 ± 5e-06 kPa and 0.0001 ± 5e-06 kPa
vapor or sublimation pressure ([1]; 322.16 K): 0.000127 ± 6e-06 kPa and 0.000126 ± 6e-06 kPa
vapor or sublimation pressure ([1]; 324.14 K): 0.000166 ± 8e-06 kPa and 0.000164 ± 8e-06 kPa and 0.000163 ± 8e-06 kPa
vapor or sublimation pressure ([1]; 326.14 K): 0.000205 ± 1e-05 kPa and 0.000204 ± 1e-05 kPa and 0.000206 ± 1e-05 kPa
vapor or sublimation pressure ([1]; 329.15 K): 0.0003 ± 1.5e-05 kPa and 0.000294 ± 1.5e-05 kPa
vapor or sublimation pressure ([1]; 332.13 K): 0.000417 ± 2.1e-05 kPa and 0.000414 ± 2.1e-05 kPa and 0.00041 ± 2.1e-05 kPa
vapor or sublimation pressure ([1]; 335.18 K): 0.000584 ± 2.9e-05 kPa and 0.000582 ± 2.9e-05 kPa and 0.000576 ± 2.9e-05 kPa
vapor or sublimation pressure ([1]; 337.14 K): 0.000734 ± 3.7e-05 kPa and 0.000721 ± 3.6e-05 kPa
vapor or sublimation pressure ([1]; 339.15 K): 0.000934 ± 4.7e-05 kPa and 0.000935 ± 4.7e-05 kPa and 0.00092 ± 4.6e-05 kPa
Normal melting temperature [1]: 140.80 ± 0.39 °C
Molar enthalpy of transition or fusion [2]: 6.03 ± 0.136 kcal/mol

O=C(O)c1ccc(Br)cc1 [4-bromobenzoic acid]
vapor or sublimation pressure ([1]; 348.67 K): 0.000155 ± 8e-06 kPa and 0.000153 ± 8e-06 kPa and 0.000152 ± 8e-06 kPa
vapor or sublimation pressure ([1]; 350.14 K): 0.000176 ± 9e-06 kPa and 0.00018 ± 9e-06 kPa and 0.000175 ± 9e-06 kPa
vapor or sublimation pressure ([1]; 351.67 K): 0.000202 ± 1e-05 kPa and 0.000205 ± 1e-05 kPa
vapor or sublimation pressure ([1]; 353.14 K): 0.000245 ± 1.2e-05 kPa and 0.00024 ± 1.2e-05 kPa
vapor or sublimation pressure ([1]; 354.65 K): 0.000276 ± 1.4e-05 kPa and 0.000278 ± 1.4e-05 kPa
vapor or sublimation pressure ([1]; 356.17 K): 0.000331 ± 1.7e-05 kPa and 0.000324 ± 1.6e-05 kPa and 0.000326 ± 1.6e-05 kPa
vapor or sublimation pressure ([1]; 357.67 K): 0.000384 ± 1.9e-05 kPa and 0.000389 ± 1.9e-05 kPa and 0.000376 ± 1.9e-05 kPa
vapor or sublimation pressure ([1]; 359.24 K): 0.000448 ± 2.2e-05 kPa and 0.000429 ± 2.1e-05 kPa and 0.000447 ± 2.2e-05 kPa
vapor or sublimation pressure ([1]; 360.65 K): 0.000517 ± 2.6e-05 kPa and 0.000495 ± 2.5e-05 kPa and 0.000512 ± 2.6e-05 kPa
vapor or sublimation pressure ([1]; 362.22 K): 0.000609 ± 3e-05 kPa and 0.000617 ± 3.1e-05 kPa and 0.000611 ± 3.1e-05 kPa
vapor or sublimation pressure ([1]; 363.63 K): 0.000692 ± 3.5e-05 kPa and 0.000703 ± 3.5e-05 kPa and 0.000683 ± 3.4e-05 kPa
vapor or sublimation pressure ([1]; 365.23 K): 0.00082 ± 4.1e-05 kPa and 0.000809 ± 4e-05 kPa
vapor or sublimation pressure ([1]; 366.65 K): 0.000932 ± 4.7e-05 kPa and 0.000909 ± 4.5e-05 kPa
Normal melting temperature [1]: 253.19 ± 0.84 °C
Molar enthalpy of transition or fusion [2]: 7.38 ± 0.163 kcal/mol
